Values after ≈ are worked out from the molar mass of the structure shown. Like-named read-outs stand apart in the source and are kept apart here.
Experiments:
Solubility pH 7.4 = format: physicochemical; details: aqueous buffer
[1] = system: Asexual parasites of P. falciparum strain 3D7; assay: In vitro drug activity on asexual parasites (SYBR Green assay); format: cell-based; details: Plasmodium falciparum, P. falciparum 3D7 asexual stage, 72 h, read-out: Asexual EC50
Procedure, shortened: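 Growth was measured by SYBR Green I fluorescence (excitation 490 nm, emission 520 nm) after freeze-thaw lysis and 30 min staining at room temperature. Parasites (0.5% parasitemia, 2% hematocrit) had been incubated 72 h with compound, DMSO below 0.5%. Conditions were run in duplicate with no-drug and RBC-alone controls.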

[2] = Microsomal stability (rat); format: in vitro ADME; details: rat microsomes
PAMPA permeability = format: in vitro ADME
[3] = Table 1, read-out: Microsomal Stability (rat) T1/2
[4] = Table 3, read-out: Microsomal Stability (rat) T1/2

Row | SMILES | solubility (Solubility pH 7.4; Table 1) | EC50 ([1]; Table 1) | half-life [2, 3] | Papp (PAMPA permeability; Table 1) | further results
1 | Cc1ccc(C#N)cc1-n1/c(=N/C#N)n(C)c2cnc3ccc(-c4ccc(Cl)cc4)cc3c21 [Compound 8, (E)-N-(8-(4-chlorophenyl)-1-(5-cyano-2-methylphenyl)-3-methyl-1,3-dihydro-2H-imidazo[4,5-c]quinolin-2-ylidene)cyanamide] | < 1 µg/mL | 59.8 nM | > 30 min | 1190 ×10⁻⁶ cm/s | –
2 | CC(=O)NC1CCN(c2cc(C)c(-n3c(=N)n(C)c4cnc5ccc(-c6ccc(Cl)cc6)cc5c43)cc2C#N)CC1 [Compound 132, N-(1-(4-(8-(4-chlorophenyl)-2-imino-3-methyl-2,3-dihydro-1H-imidazo[4,5-c]quinolin-1-yl)-2-cyano-5-methylphenyl)piperidin-4-yl)acetamide] | 4.6 µg/mL (≈ 8.15 µM) | 54.9 nM | > 30 min | 7 ×10⁻⁶ cm/s | –
3 | Cc1ccc(C#N)cc1-n1c(=N)n(C)c2cnc3ccc(-c4ccc(F)c(F)c4)cc3c21 [Compound 43, 3-(8-(3,4-difluorophenyl)-2-imino-3-methyl-2,3-dihydro-1H-imidazo[4,5-c]quinolin-1-yl)-4-methylbenzonitrile] | 8.3 µg/mL (≈ 19.5 µM) | 118 nM | > 30 min | 837 ×10⁻⁶ cm/s | –
4 | CSc1ccc(C#N)cc1-n1/c(=N/C#N)n(C)c2cnc3ccc(-c4ccc(Cl)cc4)cc3c21 [Compound 18, (E)-N-(8-(4-chlorophenyl)-1-(5-cyano-2-(methylthio)phenyl)-3-methyl-1,3-dihydro-2H-imidazo[4,5-c]quinolin-2-ylidene)cyanamide] | < 1 µg/mL | 564 nM | 16.9 min | 247 ×10⁻⁶ cm/s | –
5 | Cn1c(=N)n(-c2cccc(F)c2)c2c3cc(-c4ccc(Cl)cc4)ccc3ncc21 [Compound 78, 8-(4-chlorophenyl)-1-(3-fluorophenyl)-3-methyl-1,3-dihydro-2H-imidazo[4,5-c]quinolin-2-imine] | < 1 µg/mL | 309 nM | > 30 min | 629 ×10⁻⁶ cm/s | –
6 | Cn1c(=N)n(-c2cccc(C#N)c2)c2c3cc(-c4ccc(Cl)cc4)ccc3ncc21 [Compound 11, 3-(8-(4-chlorophenyl)-2-imino-3-methyl-2,3-dihydro-1H-imidazo[4,5-c]quinolin-1-yl)benzonitrile] | 3.1 µg/mL (≈ 7.56 µM) | 48.2 nM | > 30 min | 1000 ×10⁻⁶ cm/s | –
7 | Cc1cc(N2CCC2)c(C#N)cc1-n1c(=N)n(C)c2cnc3ccc(-c4ccc(Cl)cc4)cc3c21 [Compound 110, 2-(azetidin-1-yl)-5-(8-(4-chlorophenyl)-2-imino-3-methyl-2,3-dihydro-1H-imidazo[4,5-c]quinolin-1-yl)-4-methylbenzonitrile] | < 1 µg/mL | 373 nM | > 30 min | 176 ×10⁻⁶ cm/s | –
8 | COc1cccc(-c2ccc3ncc4c(c3c2)n(-c2cc(C#N)ccc2C)c(=N)n4C)c1 [Compound 32, 3-(2-imino-8-(3-methoxyphenyl)-3-methyl-2,3-dihydro-H-imidazo[4,5-c]quinolin-1-yl)-4-methylbenzonitrile] | > 42 µg/mL | 420 nM | > 30 min | 678 ×10⁻⁶ cm/s | –
9 | Cn1c(=N)n(-c2cncnc2)c2c3cc(-c4ccc(N)nc4)ccc3ncc21 | – | – | – | – | solubility (Solubility pH 7.4; Table 3): 33.9 µg/mL (≈ 92 µM); EC50 ([1]; Table 3): 143 nM; half-life [2, 4]: > 30 min; Papp (PAMPA permeability; Table 3): 12.9 ×10⁻⁶ cm/s
10 | Cc1ccc(C#N)cc1-n1c(=N)n(C)c2cnc3ccc(-c4ccc(Cl)c(Cl)c4)cc3c21 [Compound 42, 3-(8-(3,4-dichlorophenyl)-2-imino-3-methyl-2,3-dihydro-1H-imidazo[4,5-c]quinolin-1-yl)-4-methylbenzonitrile] | < 1 µg/mL | 574 nM | > 30 min | 1650 ×10⁻⁶ cm/s | –
11 | COC(=O)/N=c1\n(C)c2cnc3ccc(-c4ccc(Cl)cc4)cc3c2n1-c1cc(C#N)ccc1C [Compound 87, methyl (E)-(8-(4-chlorophenyl)-1-(5-cyano-2-methylphenyl)-3-methyl-1,3-dihydro-2H-imidazo[4,5-c]quinolin-2-ylidene)carbamate] | < 1 µg/mL | 57.5 nM | > 30 min | 95.6 ×10⁻⁶ cm/s | –
12 | Cc1ccc(-c2ccc3ncc4c(c3c2)n(-c2cc(C#N)c(N3CCOCC3)cc2C)c(=N)n4C)cc1 [Compound 145, 5-(2-imino-3-methyl-8-(p-tolyl)-2,3-dihydro-1H-imidazo[4,5-c]quinolin-1-yl)-4-methyl-2-morpholinobenzonitrile] | 16.7 µg/mL (≈ 34.2 µM) | 142 nM | > 30 min | 1140 ×10⁻⁶ cm/s | –
13 | Cc1ccc(C#N)cc1-n1/c(=N/C(=O)OC(C)(C)C)n(C)c2cnc3ccc(-c4ccc(Cl)cc4)cc3c21 [Compound 88, tert-butyl (E)-(8-(4-chlorophenyl)-1-(5-cyano-2-methylphenyl)-3-methyl-1,3-dihydro-2H-imidazo[4,5-c]quinolin-2-ylidene)carbamate] | < 1 µg/mL | 1620 nM | > 30 min | 128 ×10⁻⁶ cm/s | –
14 | Cn1c(=N)n(C2CC(N3CCOCC3)C2)c2c3cc(-c4ccc(Cl)cc4)ccc3ncc21 (centres unmarked) [Compound 58, 8-(4-chlorophenyl)-3-methyl-1-(3-morpholinocyclobutyl)-1,3-dihydro-2H-imidazo[4,5-c]quinolin-2-imine] | > 44 µg/mL | 2670 nM | > 30 min | 816 ×10⁻⁶ cm/s | –
15 | Cc1ccc(C#N)cc1-n1c(=N)n(C)c2cnc3ccc(-c4cnc5ccccc5c4)cc3c21 [Compound 105, 3-(2-imino-3-methyl-8-(quinolin-3-yl)-2,3-dihydro-1H-imidazo[4,5-c]quinolin-1-yl)-4-methylbenzonitrile] | > 44 µg/mL | 714 nM | > 30 min | 1150 ×10⁻⁶ cm/s | –
16 | Cc1ccc(C(F)(F)F)cc1-n1c(=N)n(C)c2cnc3ccc(-c4ccc(Cl)cc4)cc3c21 [Compound 27, 8-(4-chlorophenyl)-3-methyl-1-(2-methyl-5-(trifluoromethyl)phenyl)-1,3-dihydro-2H-imidazo[4,5-c]quinolin-2-imine] | < 1 µg/mL | 138 nM | > 30 min | 1610 ×10⁻⁶ cm/s | –
17 | Cn1c(=N)n(-c2cncnc2)c2c3cc(-c4ccc(Cl)cc4)ccc3ncc21 | – | – | – | – | solubility (Solubility pH 7.4; Table 3): 16.3 µg/mL (≈ 42.1 µM); EC50 ([1]; Table 3): 220 nM; half-life [2, 4]: > 30 min; Papp (PAMPA permeability; Table 3): 397 ×10⁻⁶ cm/s
18 | CC(=O)N1CCN(c2ncc(-n3c(=N)n(C)c4cnc5ccc(-c6ccc(Cl)cc6)cc5c43)cn2)CC1 | – | – | – | – | solubility (Solubility pH 7.4; Table 3): 22.9 µg/mL (≈ 44.6 µM); EC50 ([1]; Table 3): 391 nM; half-life [2, 4]: > 30 min; Papp (PAMPA permeability; Table 3): 292 ×10⁻⁶ cm/s
19 | CC(=O)N1CCN(c2nc(C)c(-n3c(=N)n(C)c4cnc5ccc(-c6ccc(Cl)cc6)cc5c43)cc2C#N)CC1 [Compound 130, 2-(4-acetylpiperazin-1-yl)-5-(8-(4-chlorophenyl)-2-imino-3-methyl-2,3-dihydro-1H-imidazo[4,5-c]quinolin-1-yl)-6-methylnicotinonitrile] | > 54 µg/mL | 22.2 nM | 20.2 min | 112 ×10⁻⁶ cm/s | –
20 | Cn1c(=N)n(-c2cnc(N3CCNCC3)c(C#N)c2)c2c3cc(-c4ccc(Cl)cc4)ccc3ncc21 [Compound 48, 5-(8-(4-chlorophenyl)-2-imino-3-methyl-2,3-dihydro-1H-imidazo[4,5-c]quinolin-1-yl)-2-(piperazin-1-yl)nicotinonitrile] | < 1 µg/mL | 125 nM | > 30 min | 30.5 ×10⁻⁶ cm/s | –
21 | Cn1c(=N)n(-c2ccc(N3CCOCC3)c(C#N)c2)c2c3cc(-c4ccc(Cl)cc4)ccc3ncc21 [Compound 51, 5-(8-(4-chlorophenyl)-2-imino-3-methyl-2,3-dihydro-1H-imidazo[4,5-c]quinolin-1-yl)-2-morpholinobenzonitrile] | < 1 µg/mL | 186 nM | > 30 min | 81.1 ×10⁻⁶ cm/s | –
22 | Cc1ccc(C#N)cc1-n1c(=N)n(C)c2cnc3ccc(-c4ccc(F)c(O)c4)cc3c21 [Compound 39, 3-(8-(4-fluoro-3-hydroxyphenyl)-2-imino-3-methyl-2,3-dihydro-1H-imidazo[4,5-c]quinolin-1-yl)-4-methylbenzonitrile] | > 42 µg/mL | 54.5 nM | > 30 min | 147 ×10⁻⁶ cm/s | –
23 | Cc1ccc(C#N)cc1-n1c(=N)n(C)c2cnc3ccc(-c4ccc(Cl)c(C#N)c4)cc3c21 [Compound 30, 2-chloro-5-(1-(5-cyano-2-methylphenyl)-2-imino-3-methyl-2,3-dihydro-1H-imidazo[4,5-c]quinolin-8-yl)benzonitrile] | 7.3 µg/mL (≈ 16.3 µM) | 60.3 nM | > 30 min | 1210 ×10⁻⁶ cm/s | –
24 | Cn1c(=N)n(-c2ccc(C(=O)NC3CC3)cc2)c2c3cc(-c4ccc(Cl)cc4)ccc3ncc21 [Compound 65, 4-(8-(4-chlorophenyl)-2-imino-3-methyl-2,3-dihydro-1H-imidazo[4,5-c]quinolin-1-yl)-N-cyclopropylbenzamide] | 6.1 µg/mL (≈ 13 µM) | 580 nM | > 30 min | 10.2 ×10⁻⁶ cm/s | –
25 | Cc1ccc(C#N)cc1-n1c(=N)n(C)c2cnc3ccc(-c4cccc(C#N)c4)cc3c21 [Compound 25, 3-(8-(3-cyanophenyl)-2-imino-3-methyl-2,3-dihydro-1H-imidazo[4,5-c]quinolin-1-yl)-4-methylbenzonitrile] | > 41 µg/mL | 118 nM | > 30 min | 1430 ×10⁻⁶ cm/s | –
26 | N=c1ccc2cnc3ccc(-c4ccc(N)nc4)cc3c2n1-c1cccc(C(F)(F)F)c1 | – | – | – | – | solubility (Solubility pH 7.4; Table 2): > 64 µg/mL; EC50 ([1]; Table 2): 21.8 nM; half-life ([2]; Table 2, read-out: Microsomal Stability (rat) T1/2): > 30 min; Papp (PAMPA permeability; Table 2): 228 ×10⁻⁶ cm/s

From patent publication US20210188843A1, “QUINOLINE COMPOUNDS AND THEIR PREPARATION AND USE AS ANTIMALARIAL AGENTS” (The United States of America,as represented by the …, priority 2018, published 2021)
